{
  "source": "paper PMC12683522",
  "about": "(Frontiers in Pharmacology, 2025)",
  "key": {"[1]": {"assay": "Bioequivalence analysis of test vs reference palbociclib tablets (GLSM ratio, 90% CI)", "format": "in vivo, healthy Chinese subjects", "conditions": "fasting, rabeprazole pre-treatment", "description": "After log-transforming Cmax, AUC0−t, and AUC0‐∞ , analysis of variance (using the PROC MIXED method) was performed via a mixed linear effects model, with formulation, period, and sequence treated as fixed effects and subject nested within sequence as a random effect. Throughout the analyses, missing data were, in principle, not imputed. Bioequivalence was assessed using the two one-sided t-tests, and the 90% confidence interval (CI) for the ratio of the geometric least squares means of the two formulations was calculated. If the CI fell entirely within the range of 80.00%–125.00%, the formulations were deemed bioequivalent. Tmax was evaluated using the non-parametric Wilcoxon signed-rank test, and statistical significance was considered when P < 0.05. Pharmacokinetic parameters were calculated using Phoenix WinNonlin (version 8.3), while the remaining statistical analyses and data processing were performed by SAS software (version 9.4). Continuous variables were presented with descriptive statistics, and categorical data were expressed as frequencies and percentages."}, "[2]": {"set-up": "method as in Eser et al., 2022", "conditions": "intragastric pH above 4.5; ref Eser et al., 2022; cited from earlier work"}, "[3]": {"assay": "Single-dose pharmacokinetics of palbociclib tablets under fasting conditions with rabeprazole pre-treatment", "format": "in vivo, healthy Chinese subjects", "conditions": "sampling to 96 h after administration", "description": "This was a single-center, randomized, open-label, single-dose, two-period crossover bioequivalence study conducted under fasting conditions with rabeprazole pre-treatment. It was carried out at the Phase I Clinical Research Center of Hebei General Hospital in Shijiazhuang, Hebei Province, China, from 12 September 2023, to 27 October 2023. […] Water intake was prohibited from 1 h before to 1 h after each dose (except for breakfast and water used for medication administration). On Day 1, under fasted conditions (at least 10 h), subjects received their seventh dose of rabeprazole and maintained fasting for an additional 4 h. […]\nTmax, t1/2z, elimination rate constant (λz) and percentage of extrapolated residual area (AUC_%Extrap) were the secondary endpoints. […] Cmax and Tmax were determined directly from the observed plasma concentration-time profiles. AUC0-t was calculated using the linear/log trapezoidal method. AUC0‐∞ was determined by formula: AUC0‐∞ = AUC0-t + Ct/λz, where Ct was the last measurable concentration. The slope of the terminal segment of the semi-logarithmic drug-time curve calculated by linear regression is used to obtain λz. t1/2z was calculated as ln2/λz. AUC_%Extrap was determined by formula: AUC_%Extrap = [( AUC0‐∞ - AUC0-t)/ AUC0‐∞ ]×100%. For pharmacokinetic parameters that cannot be calculated due to inapplicable data, they are marked with “-” in the dataset."}, "[4]": {"assay": "Safety assessment (adverse events, CTCAE v5.0)", "format": "in vivo, healthy Chinese subjects", "description": "Safety assessments included AEs, SAEs, concomitant medications, laboratory tests, clinical symptoms, vital sign measurements, 12-lead ECG and physical examination results. […] Laboratory tests, physical examinations, and 12-lead ECG were performed at screening and during the follow-up period. All AEs were monitored throughout the study by the research doctors and spontaneously reported by the subjects. AEs were coded using MedDRA (Medical Dictionary for Regulatory Activities: Version 26.1) and summarized according to System Organ Class (SOC) and Preferred Term (PT), including the number and percentage of subjects experiencing AEs and the frequency of AEs. The severity of AEs was graded according to the Common Terminology Criteria for Adverse Events (CTCAE, Version 5.0) issued by the U.S. National Cancer Institute. Missing safety data were labeled as “Missing” in the datasets and were not imputed in the subsequent analyses."}},
  "data": [
    {"compound": "CC(=O)c1c(C)c2cnc(Nc3ccc(N4CCNCC4)cn3)nc2n(C2CCCC2)c1=O", "note": "[palbociclib]", "values": [
      {"measurement": "Intra-subject CV of AUC0-t", "setting": "[1]", "value": 6.14, "unit": "%"},
      {"measurement": "Intra-subject CV of AUC0‐∞", "setting": "[1]", "value": 5.83, "unit": "%"},
      {"measurement": "Intra-subject CV of Cmax", "setting": "[1]", "value": 9.65, "unit": "%"},
      {"measurement": "solubility", "setting": "[2]", "value": "< 500", "unit": "µg/mL"},
      {"measurement": "share of AUC0‐∞ covered by AUC0-t", "setting": "[3]", "value": 93, "unit": "%"},
      {"measurement": "severity of AEs", "setting": "[4]; CTCAE v5.0", "value": "mild and reported as grade 1"},
      {"measurement": "adverse events confirmed as adverse reactions", "setting": "[4]; of 28 adverse events in 17 subjects", "value": 4},
      {"measurement": "Sum of treatment-emergent AEs, AE count", "setting": "[4]; safety analysis set", "value": 28},
      {"measurement": "incidence of AEs", "setting": "[4]; safety analysis set", "value": 51.5, "unit": "%"},
      {"measurement": "serious adverse events (SAEs)", "setting": "[4]; safety analysis set", "value": "No SAEs occurred"}
    ]}
  ]
}
